According to the supplement of paper PMC10307832:

Tests used:
Assay in all cases: relative viability (nuclei count vs DMSO), 5 days (fraction); higher = more cells survive
[1] = compound: Cc1ccc(C(=O)Nc2ccc(CN3CCN(C)CC3)c(C(F)(F)F)c2)cc1C#Cc1cnc2cccnn12 [Ponatinib]
Procedure, shortened: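 On vehicle-anchored 1536-well plates, lung cancer cell lines held overnight at 37 °C were pinned with five library-drug doses (not always all listed) spaced by √10. With no medium change over 5 days, they were then fixed, permeabilised and Hoechst-stained in one step and imaged at 4×. MetaXpress counted nuclei, and viability is the median across plates of treated-well over vehicle-well nuclei. Acceptance needed control CV below 25% and at least one doubling.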

[2] = compound: Cc1ccc(C(=O)Nc2ccc(CN3CCN(C)CC3)c(C(F)(F)F)c2)cc1C#Cc1cnc2cccnn12 [Ponatinib] + Nc1nc2[nH]cc(CCc3ccc(C(=O)N[C@@H](CCC(=O)O)C(=O)O)cc3)c2c(=O)[nH]1 [Pemetrexed] (partner 0.2 µM)
Procedure, shortened: (§1)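 Lung cancer cell lines, seeded in 1536-well plates, were treated the following day by pin tool with a single drug or with five library-drug doses (not always all listed) in √10 steps on top of a fixed anchor-drug dose. Cells were fixed and nuclei stained in one step after 5 days, and nuclei were counted. Relative viability is the nuclei count for treated wells divided by that for vehicle wells, reported as medians of duplicate plates.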

[3] = compound: Cc1ccc(C(=O)Nc2ccc(CN3CCN(C)CC3)c(C(F)(F)F)c2)cc1C#Cc1cnc2cccnn12 [Ponatinib] + CC(C)C[C@H](NC(=O)[C@H](Cc1ccccc1)NC(=O)c1cnccn1)B(O)O [Bortezomib] (partner 0.002 µM)
Procedure, shortened: as §1

[4] = compound: Cc1ccc(Nc2nccc(N(C)c3ccc4c(C)n(C)nc4c3)n2)cc1S(N)(=O)=O [Pazopanib] + N=C(N)NC(=N)NCCc1ccccc1 [Phenformin] (partner 250 µM)
Procedure, shortened: as §1

| Cell Line | relative viability ([1]; 0.002 µM) | relative viability ([1]; 0.006325 µM) | relative viability ([1]; 0.06325 µM) | relative viability ([1]; 0.2 µM) | relative viability ([2]; first compound 0.002 µM) | relative viability ([2]; first compound 0.006325 µM) | relative viability ([2]; first compound 0.06325 µM) | relative viability ([2]; first compound 0.2 µM) | relative viability ([3]; first compound 0.002 µM) | relative viability ([3]; first compound 0.006325 µM) | relative viability ([3]; first compound 0.06325 µM) | relative viability ([3]; first compound 0.2 µM) | relative viability ([4]; first compound 0.01 µM) | relative viability ([4]; first compound 0.03162 µM) | relative viability ([4]; first compound 0.1 µM) | relative viability ([4]; first compound 0.3162 µM) | relative viability ([4]; first compound 1 µM) |
| --- | --- | --- | --- | --- | --- | --- | --- | --- | --- | --- | --- | --- | --- | --- | --- | --- | --- |
| NCI-H23 | 0.862 | 1 | 1.15 | 0.833 | 0.616 | 0.766 | 0.819 | 0.666 | 0.942 | 1.04 | 1.15 | 0.853 | 0.565 | 0.87 | 0.905 | 0.798 | 0.783 |
| NCI-H322M | 0.96 | 0.983 | 0.953 | 0.853 | 0.639 | 0.677 | 0.655 | 0.589 | 1.19 | 1.27 | 1.44 | 1.21 | 0.844 | 0.866 | 0.779 | 0.854 | 0.791 |
| NCI-H441 | 0.899 | 0.925 | 1.07 | 0.855 | 0.266 | 0.256 | 0.297 | 0.215 | 0.592 | 0.363 | 0.402 | 0.452 | 0.741 | 0.911 | 0.811 | 0.986 | 1.01 |
| NCI-H460 | 0.943 | 0.958 | 0.969 | 0.985 | 0.06 | 0.062 | 0.0629 | 0.0632 | 1.01 | 0.98 | 1.06 | 0.974 | 0.578 | 0.546 | 0.525 | 0.548 | 0.562 |
| NCI-H520 | 0.774 | 0.921 | 0.832 | 0.628 | 0.59 | 0.636 | 0.556 | 0.407 | 0.623 | 0.83 | 0.874 | 0.439 | 0.386 | 0.545 | 0.507 | 0.705 | 0.537 |
| NCI-H596 | 0.906 | 0.924 | 0.875 | 0.785 | 0.478 | 0.467 | 0.48 | 0.469 | 0.88 | 0.959 | 0.905 | 0.829 |  | 0.916 | 0.732 | 0.879 | 0.963 |
| NCI-H647 | 0.818 | 1.05 | 1.09 | 0.769 | 0.203 | 0.193 | 0.17 | 0.203 | 0.825 | 0.964 | 1.15 | 0.969 | 0.483 | 0.643 | 0.541 | 0.663 | 0.615 |
| NCI-H650 | 0.791 | 0.848 | 0.858 | 0.896 | 0.815 | 0.965 | 0.948 | 0.872 | 0.536 | 0.695 | 0.575 | 0.703 | 0.42 | 0.473 | 0.438 | 0.466 | 0.444 |
| NCI-H661 | 0.98 | 0.942 | 0.985 | 0.99 | 0.965 | 0.968 | 0.932 | 0.87 | 0.714 | 0.88 | 0.962 | 0.63 | 0.275 | 0.281 | 0.255 | 0.272 | 0.316 |
| NCI-H838 | 0.95 | 1.01 | 0.994 | 0.793 | 0.234 | 0.249 | 0.255 | 0.227 | 0.903 | 1.05 | 0.698 | 0.817 | 0.548 | 0.648 | 0.587 | 0.647 | 0.753 |
| NCI-H1355 | 0.923 | 1.02 | 1.11 | 1 | 0.983 | 0.975 | 1.14 | 1.07 | 1.09 | 1.11 | 1.25 | 1.19 | 0.42 | 0.481 | 0.406 | 0.455 | 0.461 |
| NCI-H1437 | 0.945 | 0.983 | 1.01 | 0.926 | 0.312 | 0.294 | 0.32 | 0.27 | 0.572 | 0.681 | 0.608 | 0.66 | 0.355 | 0.312 | 0.34 | 0.303 | 0.338 |
| NCI-H1563 | 0.935 | 0.959 | 0.99 | 0.815 | 0.748 | 0.798 | 0.745 | 0.641 | 0.773 | 0.847 | 0.836 | 0.571 | 0.64 | 0.664 | 0.673 | 0.722 | 0.758 |
| NCI-H1650 | 0.915 | 1.05 | 1.22 | 0.891 | 0.345 | 0.334 | 0.44 | 0.36 | 0.216 | 0.193 | 0.227 | 0.222 | 0.405 | 0.559 | 0.418 | 0.537 | 0.464 |
| NCI-H1651 | 0.982 | 1.02 | 1.08 | 0.929 | 0.558 | 0.627 | 0.614 | 0.588 | 0.936 | 0.869 | 0.975 | 0.983 | 0.359 | 0.351 | 0.343 | 0.373 | 0.379 |
| NCI-H1666 | 0.919 | 0.977 | 1.11 | 1.04 | 0.847 | 0.829 | 0.928 | 0.837 | 0.736 | 0.832 | 0.985 | 1.11 | 0.576 | 0.581 | 0.575 | 0.613 | 0.67 |
| NCI-H1734 | 0.938 | 0.974 | 1 | 0.871 | 0.394 | 0.399 | 0.44 | 0.395 | 0.87 | 0.957 | 0.917 | 0.905 | 0.353 | 0.416 | 0.417 | 0.495 | 0.418 |
| NCI-H1755 | 1.02 | 0.964 | 0.99 | 0.892 | 0.402 | 0.404 | 0.398 | 0.466 | 0.953 | 0.99 | 0.98 | 1.01 | 0.552 | 0.636 | 0.673 | 0.65 | 0.671 |
